Experimental data as given in ChEMBL document CHEMBL1201862, “PubChem BioAssay data set” (2004).
Activity calls are given as the source filed them.

What was measured:
[1] = biological target: T1, Carboxy-terminal domain RNA polymerase II polypeptide A small phosphatase 1 (Homo sapiens, UniProt Q9GZU7); experiment: inhibitors of CTDSP1, concentration-response testing, biochemical assay, absorbance-based, actives from ultra-high-throughput screening (AID 540297); format: functional
T1 sequence (Q9GZU7 whole entry): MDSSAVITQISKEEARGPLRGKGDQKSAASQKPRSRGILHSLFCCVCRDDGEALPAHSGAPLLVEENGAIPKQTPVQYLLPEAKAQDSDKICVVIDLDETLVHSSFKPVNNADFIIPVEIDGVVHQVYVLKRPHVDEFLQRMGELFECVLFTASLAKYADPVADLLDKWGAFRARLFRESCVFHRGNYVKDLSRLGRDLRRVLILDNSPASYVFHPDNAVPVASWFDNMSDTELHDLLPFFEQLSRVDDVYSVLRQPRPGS

[2] = biological target: DNA (cytosine-5)-methyltransferase 1 (Homo sapiens, UniProt P26358); experiment: DNMT1 methyltransferase inhibitors, confirmation, biochemical, fluorescent molecular beacon (AID 602386); format: functional
[3] = biological target: T2, Probable nicotinate-nucleotide adenylyltransferase (Staphylococcus aureus (strain N315), UniProt P65502); format: functional, Staphylococcus aureus subsp. aureus N315;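 for IC50 Mean: confirmatory dose-response retesting of NadD inhibitor hits first found in an ultra-high-throughput screen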
[4] = biological target: T2, Probable nicotinate-nucleotide adenylyltransferase; format: functional, Staphylococcus aureus subsp. aureus N315; details: read-out: IC50_Mean
Vero = Vero cell cytotoxicity, cytotoxicity control for flavivirus capping enzyme inhibitors (AID 588742); format: functional; details: Chlorocebus sabaeus
Genome polyprotein = Genome polyprotein (dengue virus type 2, UniProt P29990); experiment: Dengue-2 NS5 methyltransferase inhibitors, primary screen, biochemical, confirmation dose response (AID 588689); format: functional
[5] = THP-1 cell cytotoxicity, dose response, cytotoxicity control for Vif-APOBEC3G degradation inhibitor project, THP-1 cells (AID 1117359); format: functional; details: Human immunodeficiency virus 1, THP-1
HEK293 [6] = experiment: cells; details: Homo sapiens
HEK293 [7] = experiment: cells; details: Homo sapiens; remark: listed apart in the source
[8] = biological target: Beta-2 adrenergic receptor (Homo sapiens, UniProt P07550); experiment: beta2AR agonists driving receptor internalization, dose response, cell-based, FAP fluorogen, flow cytometry, cherry pick 1 (AID 588763); format: functional
[9] = biological target: Ras and Rab interactor 1/Tyrosine-protein kinase ABL1 (Homo sapiens, UniProt P00519+Q13671); format: functional;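 note: biochemical TR-FRET dose-response test measuring inhibition of binding between Rin1 and Abl proteins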
HEK293 [10] = experiment: inhibitors of LMP1-driven NF-kB reporter, dose response, cell-based, HEK293, luciferase, cherry-pick (AID 588343); format: functional; details: Homo sapiens
Protein Wnt-3a = Protein Wnt-3a (Mus musculus, UniProt P27467); experiment: Wnt3a-driven reporter signaling inhibition, dose response, selectivity assay for Gli-SUFU antagonist project, Wnt-LIGHT cells, luminescence (AID 651570); format: functional; details: read-out: IC50_Mean;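 note: Wnt-LIGHT reporter cells stimulated with conditioned medium from Wnt3a-producing cells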
[11] = biological target: COUP transcription factor 2 (Homo sapiens, UniProt P24468); experiment: Luminescence-based cell-based high throughput dose response assay to identify inhibitors of COUP-TFII (NR2F2).; format: functional;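 note: HEK293 cells transiently cotransfected with COUP-TFII expression vector and reporter; luciferase reporter luminescence driven by COUP-TFII from the pX2-168 reporter plasmid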
Melanocortin receptor 4 = Melanocortin receptor 4 (Homo sapiens, UniProt P32245); format: functional, cell-based;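 note: Cell-based assay with luminescence read-out, confirmatory dose-response testing for agonist activity of biased ligands at MC4R; human U2OS cells with tagged receptor and beta-arrestin; potency of agonists that increase receptor coupling to beta-arrestin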
[12] = biological target: T3, DNA repair protein RAD52 homolog (Homo sapiens, UniProt P43351); format: functional, biochemical
T3 sequence (P43351 whole entry): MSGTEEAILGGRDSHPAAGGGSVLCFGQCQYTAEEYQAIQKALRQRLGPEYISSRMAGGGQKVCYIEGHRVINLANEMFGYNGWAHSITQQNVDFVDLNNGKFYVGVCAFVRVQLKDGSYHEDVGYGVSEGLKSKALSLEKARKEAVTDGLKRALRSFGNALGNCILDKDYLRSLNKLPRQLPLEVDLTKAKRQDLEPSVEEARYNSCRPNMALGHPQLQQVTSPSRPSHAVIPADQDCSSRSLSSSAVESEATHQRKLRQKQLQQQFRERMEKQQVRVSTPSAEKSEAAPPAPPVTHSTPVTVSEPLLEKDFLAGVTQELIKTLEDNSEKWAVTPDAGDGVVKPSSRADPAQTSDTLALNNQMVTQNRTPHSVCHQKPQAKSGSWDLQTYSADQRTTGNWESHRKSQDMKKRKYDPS

Paired box protein Pax-8 = Paired box protein Pax-8 (Homo sapiens, UniProt Q06710); experiment: inhibitors of PAX8-driven TPO luciferase reporter, dose response, RMG-I cells, cherry-pick (AID 687027); format: functional, cell-based;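 note: luciferase reporter driven by Pax8 target thyroperoxidase promoter measured by SteadyGlo luminescence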
[13] = biological target: Cell division cycle 7-related protein kinase (Homo sapiens, UniProt O00311); format: functional;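 note: value obtained from a kinome-wide kinase panel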
[14] = biological target: Cyclin-dependent kinase 19 (Homo sapiens, UniProt Q9BWU1); experiment: Navigating the Kinome. Panel member name: CDC2L6; format: functional
Aurora kinase A = biological target: T4, Aurora kinase A (Homo sapiens, UniProt O14965); format: functional;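 note: value from the Navigating the Kinome kinase panel profiling, panel entry STK6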
T4 sequence (O14965 whole entry): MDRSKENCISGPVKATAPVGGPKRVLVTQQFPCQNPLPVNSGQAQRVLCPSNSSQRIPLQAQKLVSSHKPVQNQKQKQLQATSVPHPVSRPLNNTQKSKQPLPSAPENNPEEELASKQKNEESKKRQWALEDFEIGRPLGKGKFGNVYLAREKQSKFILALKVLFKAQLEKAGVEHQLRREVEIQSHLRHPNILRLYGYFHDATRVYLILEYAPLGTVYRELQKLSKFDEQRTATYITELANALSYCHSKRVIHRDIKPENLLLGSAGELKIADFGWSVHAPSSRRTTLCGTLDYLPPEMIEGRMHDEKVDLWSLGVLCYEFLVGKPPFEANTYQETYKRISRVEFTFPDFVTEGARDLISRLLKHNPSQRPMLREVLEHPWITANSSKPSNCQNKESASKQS

[15] = biological target: Vascular endothelial growth factor receptor 2 (Homo sapiens, UniProt P35968); format: functional
Aurora kinase B = Aurora kinase B (Homo sapiens, UniProt Q96GD4); format: functional
[16] = biological target: Inhibitor of nuclear factor kappa-B kinase subunit epsilon (Homo sapiens, UniProt Q14164); experiment: Navigating the Kinome. Panel member name: IKBKE; format: functional
Activin receptor type-1 = Activin receptor type-1 (Homo sapiens, UniProt Q04771); experiment: Navigating the Kinome. Panel member name: ACVR1; format: functional
[17] = biological target: Cyclin-dependent kinase 8 (Homo sapiens, UniProt P49336); experiment: Navigating the Kinome. Panel member name: CDK8; format: functional
[18] = NIH-3T3 fibroblast cytotoxicity, dose response, cytotoxicity control, cell-based, fluorescence, Alamar Blue, secondary assay (AID 2327); format: functional;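 note: NIH-3T3 mouse fibroblasts cultured with fluconazole at 8 µg/mL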
[19] = C. albicans growth with fluconazole, confirmation, fluorescence, retest (AID 2467); format: functional, cell-based
[20] = inhibitors of intracellular T. cruzi replication, confirmation, NIH3T3 host cells, beta-gal luminescence (AID 2044); format: functional, cell-based;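 note: intracellular parasites grown in NIH/3T3 mouse fibroblasts as host cells; luminescent beta-galactosidase reporter signal from transgenic T. cruzi replicating inside host cells; inhibitors lower the luminescence signal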
[21] = biological target: T5, Serine/threonine-protein phosphatase (Candida dubliniensis (strain CD36 / CBS 7987 / NCPF 3949 / NRRLY-17841) (Yeast), UniProt B9W6M3); experiment: calcineurin pathway inhibitors in yeast reporter, dose response, S. cerevisiae, CDRE-lacZ, luminescence, secondary (AID 2388); format: functional, cell-based;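 note: yeast reporter cells carrying a calcineurin-responsive lacZ construct stimulated with calcium chloride; luminescent beta-galactosidase reporter signal in whole cells rather than isolated phosphatase activity; potency for inhibition where a drop in reporter signal means calcineurin blockade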
T5 sequence (B9W6M3 whole entry): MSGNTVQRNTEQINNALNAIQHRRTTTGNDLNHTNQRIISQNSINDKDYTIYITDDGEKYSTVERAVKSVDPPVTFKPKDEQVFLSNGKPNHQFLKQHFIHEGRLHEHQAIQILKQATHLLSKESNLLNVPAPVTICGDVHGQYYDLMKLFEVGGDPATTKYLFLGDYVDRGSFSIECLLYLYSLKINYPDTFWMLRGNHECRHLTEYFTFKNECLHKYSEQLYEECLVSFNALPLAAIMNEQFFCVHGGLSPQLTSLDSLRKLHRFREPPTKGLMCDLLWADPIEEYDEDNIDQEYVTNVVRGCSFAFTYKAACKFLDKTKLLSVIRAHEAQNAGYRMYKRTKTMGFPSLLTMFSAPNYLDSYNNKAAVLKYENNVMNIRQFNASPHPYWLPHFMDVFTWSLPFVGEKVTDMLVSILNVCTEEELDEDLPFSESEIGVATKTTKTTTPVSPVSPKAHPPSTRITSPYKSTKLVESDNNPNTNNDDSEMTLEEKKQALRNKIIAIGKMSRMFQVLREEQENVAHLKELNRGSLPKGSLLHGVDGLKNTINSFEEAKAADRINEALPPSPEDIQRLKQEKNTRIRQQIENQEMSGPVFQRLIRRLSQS

[22] = cytotoxicity toward NIH3T3 fibroblasts, dose response, counter-screen, cell-based, ATP luminescence, mouse fibroblasts (AID 2010); format: functional;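 note: cells exposed to compound for about 90 hours before reading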
[23] = biological target: T6, Microphthalmia-associated transcription factor (Homo sapiens, UniProt O75030); experiment: TRPM1 promoter luciferase signal decrease, dose response, MITF inhibitor project, cell-based, SK-MEL-5, cherry-picked, set 3 (AID 493073); format: functional
T6 sequence (O75030 whole entry): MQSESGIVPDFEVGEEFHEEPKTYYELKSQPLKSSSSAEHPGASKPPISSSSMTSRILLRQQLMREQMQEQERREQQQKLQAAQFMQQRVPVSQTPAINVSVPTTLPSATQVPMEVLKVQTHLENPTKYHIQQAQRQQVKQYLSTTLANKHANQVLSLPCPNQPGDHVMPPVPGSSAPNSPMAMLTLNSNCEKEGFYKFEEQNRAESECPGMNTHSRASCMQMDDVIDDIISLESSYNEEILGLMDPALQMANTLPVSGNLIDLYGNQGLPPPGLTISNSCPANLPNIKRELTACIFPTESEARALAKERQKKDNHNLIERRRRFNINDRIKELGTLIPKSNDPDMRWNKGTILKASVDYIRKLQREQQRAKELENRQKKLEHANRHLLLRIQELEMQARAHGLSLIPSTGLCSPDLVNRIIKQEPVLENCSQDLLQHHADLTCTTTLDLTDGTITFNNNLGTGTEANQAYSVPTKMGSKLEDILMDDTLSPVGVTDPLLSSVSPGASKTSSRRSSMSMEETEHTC

INS1 = experiment: beta cell apoptosis inhibitors, cytokine rescue, dose response, luminescence, retest (AID 449756); format: functional, cell-based; details: Rattus norvegicus;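 note: cell death triggered by IL-1 beta plus TNF-alpha plus IFN-gamma mixture; protective hits raise ATP signal compared with cytokine alone wells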
[24] = biological target: ATP-dependent molecular chaperone HSP82 (Candida albicans (strain WO-1) (Yeast), UniProt C4YTQ8); experiment: loss of DOC-induced GRE-beta-galactosidase reporter signal, dose response, Hsp90 inhibitor project, S. cerevisiae, luminescence (AID 2400); format: functional, cell-based;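 note: beta-galactosidase luminescence from glucocorticoid response element reporter as proxy for Hsp90 function; inhibitor potency where signal loss means Hsp90 inhibition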
A-375 = experiment: A375 melanoma cell viability reduction, dose response, counter-screen for MITF modulator project, cherry-pick samples, set 2 (AID 540335); format: functional, cell-based; details: Homo sapiens
[25] = biological target: SWI/SNF-related matrix-associated actin-dependent regulator of chromatin subfamily A member 2 (Homo sapiens, UniProt P51531); experiment: Luminescence-based cell-based high throughput dose response assay to identify activators of the function of SWI/SNF related, matrix associated, actin dependent regulator of chromatin, subfamily a, member 2 (SMARCA2, BRM).; format: functional
[26] = Counterscreen for activators of the function of SWI/SNF related, matrix associated, actin dependent regulator of chromatin, subfamily a, member 2 (SMARCA2, BRM): Luminescence-based cell-based high throughput dose response assay to identify non-selective compounds using the VP16 reporter assay.; format: functional
[27] = biological target: Dual specificity protein kinase CLK4 (Homo sapiens, UniProt Q9HAZ1); format: functional

Sequence of Aurora kinase B (Q96GD4 whole entry): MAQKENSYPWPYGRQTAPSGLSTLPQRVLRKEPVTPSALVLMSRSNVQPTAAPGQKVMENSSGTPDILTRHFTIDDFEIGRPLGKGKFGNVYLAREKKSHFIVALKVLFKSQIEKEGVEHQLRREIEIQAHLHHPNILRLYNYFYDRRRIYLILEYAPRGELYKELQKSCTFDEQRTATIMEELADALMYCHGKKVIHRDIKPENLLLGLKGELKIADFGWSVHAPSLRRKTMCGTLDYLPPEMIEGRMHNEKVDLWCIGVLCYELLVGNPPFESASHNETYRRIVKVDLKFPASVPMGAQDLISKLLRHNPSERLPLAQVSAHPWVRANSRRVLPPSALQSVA
Sequence of Cyclin-dependent kinase 19 (Q9BWU1 whole entry): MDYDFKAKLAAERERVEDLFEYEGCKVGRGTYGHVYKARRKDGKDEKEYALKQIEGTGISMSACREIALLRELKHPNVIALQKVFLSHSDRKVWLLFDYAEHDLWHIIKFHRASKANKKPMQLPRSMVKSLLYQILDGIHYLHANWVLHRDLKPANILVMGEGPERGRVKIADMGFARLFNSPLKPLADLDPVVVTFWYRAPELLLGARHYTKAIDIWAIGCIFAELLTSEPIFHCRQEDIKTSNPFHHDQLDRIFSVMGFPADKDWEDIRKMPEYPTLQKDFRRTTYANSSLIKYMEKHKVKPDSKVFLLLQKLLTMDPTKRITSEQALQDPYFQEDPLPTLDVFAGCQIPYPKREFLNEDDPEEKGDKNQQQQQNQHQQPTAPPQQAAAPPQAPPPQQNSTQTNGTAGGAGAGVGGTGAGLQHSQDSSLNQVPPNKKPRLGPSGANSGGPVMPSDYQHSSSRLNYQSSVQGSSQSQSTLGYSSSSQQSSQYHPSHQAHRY
T2 sequence (P65502 whole entry): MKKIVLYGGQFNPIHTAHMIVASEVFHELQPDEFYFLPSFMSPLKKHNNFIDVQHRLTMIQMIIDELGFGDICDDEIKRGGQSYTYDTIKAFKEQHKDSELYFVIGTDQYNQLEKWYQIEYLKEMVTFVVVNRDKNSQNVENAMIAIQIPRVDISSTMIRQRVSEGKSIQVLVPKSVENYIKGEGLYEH
Sequence of Beta-2 adrenergic receptor (P07550 whole entry): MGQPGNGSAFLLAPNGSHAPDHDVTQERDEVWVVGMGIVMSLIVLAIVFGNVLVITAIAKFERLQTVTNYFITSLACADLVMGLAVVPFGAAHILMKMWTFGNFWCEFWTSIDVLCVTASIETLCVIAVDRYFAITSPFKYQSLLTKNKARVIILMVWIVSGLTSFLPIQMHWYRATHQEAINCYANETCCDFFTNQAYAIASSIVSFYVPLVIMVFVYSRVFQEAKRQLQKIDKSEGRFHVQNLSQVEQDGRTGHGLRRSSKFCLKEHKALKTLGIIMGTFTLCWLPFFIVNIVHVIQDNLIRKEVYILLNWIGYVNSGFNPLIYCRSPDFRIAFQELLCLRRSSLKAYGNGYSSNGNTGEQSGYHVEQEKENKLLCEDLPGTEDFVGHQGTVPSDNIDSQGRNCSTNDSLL
Sequence of SWI/SNF-related matrix-associated actin-dependent regulator of chromatin subfamily A member 2 (P51531 whole entry): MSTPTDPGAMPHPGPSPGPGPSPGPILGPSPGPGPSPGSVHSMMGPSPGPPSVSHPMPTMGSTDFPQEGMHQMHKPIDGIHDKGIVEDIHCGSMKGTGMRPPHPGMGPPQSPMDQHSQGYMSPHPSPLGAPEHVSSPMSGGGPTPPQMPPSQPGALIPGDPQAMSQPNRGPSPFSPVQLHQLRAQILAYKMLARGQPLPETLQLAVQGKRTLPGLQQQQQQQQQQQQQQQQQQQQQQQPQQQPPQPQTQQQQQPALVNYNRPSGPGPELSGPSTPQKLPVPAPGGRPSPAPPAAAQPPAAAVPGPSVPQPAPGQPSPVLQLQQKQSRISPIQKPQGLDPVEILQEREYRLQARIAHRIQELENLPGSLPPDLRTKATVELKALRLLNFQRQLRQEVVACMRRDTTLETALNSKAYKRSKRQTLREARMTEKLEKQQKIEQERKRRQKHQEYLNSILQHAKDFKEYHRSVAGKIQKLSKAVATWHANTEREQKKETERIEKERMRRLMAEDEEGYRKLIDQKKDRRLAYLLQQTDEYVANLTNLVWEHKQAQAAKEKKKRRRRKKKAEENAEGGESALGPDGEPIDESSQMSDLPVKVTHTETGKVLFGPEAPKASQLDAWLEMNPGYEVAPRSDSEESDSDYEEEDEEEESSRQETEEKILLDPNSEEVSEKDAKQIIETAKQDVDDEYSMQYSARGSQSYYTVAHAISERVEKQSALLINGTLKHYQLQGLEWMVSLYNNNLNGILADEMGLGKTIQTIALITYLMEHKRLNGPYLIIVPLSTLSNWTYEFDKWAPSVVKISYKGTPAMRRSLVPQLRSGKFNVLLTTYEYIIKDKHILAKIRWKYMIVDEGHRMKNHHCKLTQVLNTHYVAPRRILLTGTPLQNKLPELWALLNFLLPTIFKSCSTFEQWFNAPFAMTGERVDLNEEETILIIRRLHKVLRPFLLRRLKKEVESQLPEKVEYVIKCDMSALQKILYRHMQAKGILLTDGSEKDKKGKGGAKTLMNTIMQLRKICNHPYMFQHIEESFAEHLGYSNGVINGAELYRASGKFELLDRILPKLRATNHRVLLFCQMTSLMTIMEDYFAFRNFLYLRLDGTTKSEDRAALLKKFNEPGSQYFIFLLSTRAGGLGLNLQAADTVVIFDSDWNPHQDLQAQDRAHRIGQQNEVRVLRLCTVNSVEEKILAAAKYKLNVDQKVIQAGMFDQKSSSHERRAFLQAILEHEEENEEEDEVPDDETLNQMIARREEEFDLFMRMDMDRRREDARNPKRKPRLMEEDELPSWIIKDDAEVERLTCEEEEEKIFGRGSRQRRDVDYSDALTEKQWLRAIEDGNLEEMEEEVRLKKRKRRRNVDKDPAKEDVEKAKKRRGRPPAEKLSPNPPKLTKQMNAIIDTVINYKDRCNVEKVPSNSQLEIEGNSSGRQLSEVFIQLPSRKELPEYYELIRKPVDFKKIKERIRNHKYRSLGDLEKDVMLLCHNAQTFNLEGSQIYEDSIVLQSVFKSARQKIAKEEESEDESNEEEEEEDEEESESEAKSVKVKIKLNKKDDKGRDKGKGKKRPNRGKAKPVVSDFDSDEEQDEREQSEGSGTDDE
Sequence of Melanocortin receptor 4 (P32245 whole entry): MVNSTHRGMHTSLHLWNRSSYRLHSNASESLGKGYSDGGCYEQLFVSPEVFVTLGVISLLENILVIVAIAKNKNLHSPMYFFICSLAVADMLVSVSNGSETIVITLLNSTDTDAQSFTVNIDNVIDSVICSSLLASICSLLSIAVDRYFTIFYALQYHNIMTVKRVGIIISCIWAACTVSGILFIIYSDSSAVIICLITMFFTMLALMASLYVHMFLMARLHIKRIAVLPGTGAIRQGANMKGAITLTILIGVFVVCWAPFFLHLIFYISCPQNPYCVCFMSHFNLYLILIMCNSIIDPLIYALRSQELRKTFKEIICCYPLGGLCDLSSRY
Sequence of DNA (cytosine-5)-methyltransferase 1 (P26358 whole entry): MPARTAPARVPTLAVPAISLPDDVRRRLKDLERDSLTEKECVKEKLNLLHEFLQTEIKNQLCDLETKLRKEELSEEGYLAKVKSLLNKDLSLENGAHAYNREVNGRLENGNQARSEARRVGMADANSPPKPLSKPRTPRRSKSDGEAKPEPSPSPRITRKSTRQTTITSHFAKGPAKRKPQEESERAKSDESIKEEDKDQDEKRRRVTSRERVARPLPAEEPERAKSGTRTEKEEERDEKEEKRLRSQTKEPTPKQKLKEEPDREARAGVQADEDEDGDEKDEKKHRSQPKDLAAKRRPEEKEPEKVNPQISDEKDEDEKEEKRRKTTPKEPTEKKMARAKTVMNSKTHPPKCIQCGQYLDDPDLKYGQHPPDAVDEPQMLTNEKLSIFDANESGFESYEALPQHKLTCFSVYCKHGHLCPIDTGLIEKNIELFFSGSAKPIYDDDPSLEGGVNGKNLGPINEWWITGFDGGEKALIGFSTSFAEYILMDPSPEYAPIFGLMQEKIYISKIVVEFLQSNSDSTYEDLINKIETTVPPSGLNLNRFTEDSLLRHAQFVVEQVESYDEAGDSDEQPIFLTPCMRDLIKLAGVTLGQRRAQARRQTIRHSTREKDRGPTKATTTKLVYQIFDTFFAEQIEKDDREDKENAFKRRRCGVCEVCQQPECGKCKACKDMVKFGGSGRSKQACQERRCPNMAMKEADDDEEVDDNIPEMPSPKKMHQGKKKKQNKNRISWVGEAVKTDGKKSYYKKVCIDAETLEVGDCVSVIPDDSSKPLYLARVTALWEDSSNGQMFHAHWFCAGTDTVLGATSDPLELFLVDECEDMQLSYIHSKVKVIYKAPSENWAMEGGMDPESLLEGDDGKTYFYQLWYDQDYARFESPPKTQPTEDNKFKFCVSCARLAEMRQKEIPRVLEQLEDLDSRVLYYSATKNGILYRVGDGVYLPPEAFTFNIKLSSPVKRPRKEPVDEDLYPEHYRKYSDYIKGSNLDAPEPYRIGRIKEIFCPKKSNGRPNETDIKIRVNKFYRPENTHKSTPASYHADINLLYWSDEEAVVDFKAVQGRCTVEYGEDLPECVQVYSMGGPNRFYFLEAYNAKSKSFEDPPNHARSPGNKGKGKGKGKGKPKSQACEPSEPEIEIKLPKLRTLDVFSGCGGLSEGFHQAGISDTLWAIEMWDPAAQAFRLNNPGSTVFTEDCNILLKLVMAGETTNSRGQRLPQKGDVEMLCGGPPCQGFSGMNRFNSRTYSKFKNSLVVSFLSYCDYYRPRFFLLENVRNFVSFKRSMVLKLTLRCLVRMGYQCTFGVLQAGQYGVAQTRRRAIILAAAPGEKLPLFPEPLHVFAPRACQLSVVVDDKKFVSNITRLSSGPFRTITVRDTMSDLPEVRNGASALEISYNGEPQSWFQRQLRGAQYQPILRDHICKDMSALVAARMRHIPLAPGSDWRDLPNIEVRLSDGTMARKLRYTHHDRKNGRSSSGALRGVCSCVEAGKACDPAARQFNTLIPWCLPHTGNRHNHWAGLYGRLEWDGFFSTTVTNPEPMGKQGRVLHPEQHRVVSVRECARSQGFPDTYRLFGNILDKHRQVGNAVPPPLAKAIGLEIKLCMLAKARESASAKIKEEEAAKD

CN(C)C(CNC(=O)c1cc(-c2ccco2)nc2ccccc12)c1ccccc1 (configuration not stated)
IC50 [1]: 2.75 µM (active)
IC50 [2]: 6.25 µM (active)
IC50 [3]: 11.2 µM (active)
IC50 [4]: 25.9 µM (active)

Cn1cccc1/C=C1\C(=O)NC(=O)N(Cc2ccccc2)C1=O
CC50 (Vero): > 40 µM (active)
IC50 (Genome polyprotein): 23.4 µM (active)
CC50 [5]: > 40 µM (active)
EC50 (HEK293 [6]): > 59.6 µM (inactive)
EC50 (HEK293 [7]): > 59.6 µM (inactive)

COc1ccc(-c2cc(C(F)(F)F)nc(S(=O)(=O)CCC(=O)N3CCOCC3)n2)cc1
EC50 [8]: 25.3 µM (inactive)

O=C(Nc1ccc(O)cc1C(=O)O)c1cccc(Br)c1
IC50 [9]: 19.1 µM (inactive)

COc1ccc(N2CCN(c3[nH]cnc4c5ccccc5nc3-4)CC2)cc1
AC50 (HEK293 [10]): 0.865 µM (active)
IC50 (Protein Wnt-3a): 1.14 µM (active)
IC50 [11]: 5.54 µM (active)

Cc1ccc(NC(=O)c2ccc(N3CCOCC3)c([N+](=O)[O-])c2)cc1S(=O)(=O)N1CCOCC1
EC50 [8]: 10.1 µM (inactive)

CC(=O)Nc1cc(-c2cccc(C(=O)NCCN(C)C)c2)cn2c(-c3cccc(C(F)(F)F)c3)cnc12
EC50 (Melanocortin receptor 4): > 89.2 µM (inactive)
AC50 [12]: 3.93 µM (active)
AC50 (Paired box protein Pax-8): 11.5 µM (active)

O=C(O)c1ccccc1Nc1ccnc(N2CCCCC2)n1
Ki [13]: 3.98 µM (active)
Ki [14]: > 100 µM (inactive)

Cc1n[nH]c2c1c(=O)n(C)c1ccccc21
Ki (Aurora kinase A): 1 µM (active)
Ki [15]: 0.631 µM (active)
Ki (Aurora kinase B): 0.0501 µM (active)

Cc1cccc(NC(=O)Nc2ccc(-c3nn(C)c4ncnc(N)c34)cc2)c1
Ki (Aurora kinase A): 0.0398 µM (active)
Ki (Aurora kinase B): 0.00158 µM (active)
Ki [16]: 0.501 µM (active)

Cc1nn(C)c(=O)c(N)c1-c1ccccc1
Ki (Activin receptor type-1): 50.1 µM (active)
Ki [17]: 31.6 µM (active)

CC(=O)Nc1ccc(Nc2c3ccccc3nc3ccccc23)cc1
EC50 [18]: 10.5 µM (active)
EC50 [19]: 1.32 µM (active)
EC50 [20]: 0.556 µM (active)
EC50 [21]: > 180 µM (inactive)
EC50 [22]: 0.536 µM (active)
AC50 [23]: 4.9 µM (active)
AC50 (INS1): 3.71 µM (active)
EC50 [24]: > 150 µM (inactive)
AC50 (A-375): 13.8 µM (active)
EC50 [25]: > 91.1 µM (inactive)
EC50 [26]: > 91.1 µM (inactive)
AC50 [12]: 2.21 µM (active)

O=c1cc(Cc2nc3ccccc3[nH]2)[nH]n1-c1ccccc1
Ki [14]: > 100 µM (inactive)
Ki [27]: 1.26 µM (active)
